These results are taken from US8765696B2, “Steroid compound” (Mikasa Seiyaku Co., Ltd., priority 2009, dated 2014).

The subject of data set [1] is croton oil-induced granuloma. Description: Test for croton oil-induced granuloma (air pouch exudate and thymus weight). To be noted: male Wistar rats, 7 days, vs control group. It counts as in vivo, rat. The text has this: Using the croton oil granuloma test, which is a test method with which the local anti-inflammatory action and the systemic side effect can be evaluated at the same time, the pharmacological effect and the systemic side effect of the compounds of the present invention were studied.
Five individuals/group of male Wistar rats having body weights of 180 to 225 g were used, and hair on the back of these rats was shaved with a clipper under ether anesthesia, followed by preparing an air pouch by subcutaneous injection of 20 mL of air at the back. On the next day, 1 mL of cottonseed oil containing 1% croton oil was administered to the pouch. Each test drug was suspended in the croton oil-containing cottonseed oil before administration. Seven days later, blood was collected from abdominal aorta under ether anesthesia, and exudate in the pouch was collected and its fluid amount was measured. Further, the thymus was removed, and its weight was measured. The weight of the exudate and the weight of the thymus are shown in Table 2 as the suppression rate and the atrophy rate (%) with respect to those of the control group.

Data set [2] can be described thus: Amount of production of active metabolite in inflamed skin and non-inflamed skin. In kind it is in vivo. The following applies: hairless rat, 0.1 mL of 0.1% ointment, LC/MS/MS, Mean ± S.D. An excerpt: The compounds of the present invention have the advantageous feature that they show the pharmacological effect after being metabolized to an active metabolite (des-ciclesonide) at the site of inflammation. The amount of the active metabolite produced when the compound of the present invention was applied to inflamed skin (skin whose dermatitis was induced by DNCB) or non-inflamed skin (normal skin) was compared.
Using, as the test region, an area of 3 cm×4 cm on the abdomen of a hairless rat of 9 weeks old, 0.4 mL of 1% DNCB/acetone solution was applied to the inside of the region under isoflurane anesthesia, to carry out sensitization. Two weeks later, 1 mL of 1% DNCB/acetone solution was applied to the inside of the region to cause induction, and, 48 hours thereafter, 0.1 mL of a test drug (0.1% ointment) was uniformly applied to the test region. The skin was removed 48 hours after the beginning of the application of the test drug. On the other hand, the test drug was also applied to a normal animal which had not been subjected to the sensitization and the induction, and the skin was removed 48 hours later. […] After centrifugation (10,000 g, 4° C., 5 min.), the centrifugal supernatant was subjected to quantification of the amount of the active metabolite (des-ciclesonide) using LC/MS/MS. […]

The test system of data set [3] is croton oil-induced ear edema. Description: Test for croton oil-induced ear edema. In kind it is in vivo. The following applies: rat right auricle; for Edema suppression rate of 6 hours after administration of inflammatory agent (%): 6 hours after croton oil; for Edema suppression rate of 24 hours after administration of inflammatory agent (%): 24 hours after croton oil. How it is done:
Croton oil ear edema test, which is a representative model for dermatitis, was used to study the pharmacological effect of compounds of the present invention.
Five individuals/group of rats of 5 weeks old (body weight, 128 g to 169 g) were used. One day before the test, the thickness of the right ear was measured under ether anesthesia using a dial thickness gauge, to obtain the Pre value. On the day of the test, 20 mg each of the ointments to be tested, which had been prepared to have various concentrations in white vaseline, was applied to the right auricle (both sides) of each rat, and a collar was then placed around the neck of the rat to prevent contacting/scratching and removal of the drug. Two hours later, the ointment was wiped off under ether anesthesia using absorbent cotton, and 0.1 mL of 5% croton oil (croton oil:ether:pyridine:distilled water=1:14:4:1) solution was applied dropwise to the both sides of the auricle while drying the solution with a drier (air blow), to induce ear edema. Six and 24 hours after the induction of the edema, the thickness of the right auricle was measured under ether anesthesia, and the edema rate and the edema suppression rate were calculated according to the equations below, which suppression rate is shown in Table 1.

Data set [4] deals with DNCB-induced dermatitis. Description: Test for DNCB-induced dermatitis (skin thickness and thymus weight). To be noted: rat, 0.1 mL once per day, 6 times. In kind it is in vivo. How it is done: The DNCB-induced dermatitis test, which is a representative model for allergic dermatitis, was used to study the pharmacological effect of the compound of the present invention.
Abdominal hair of rats (body weight, 205 to 230 g) under isoflurane anesthesia was shaved with an electric clipper and a shaver, and a test region having a size of 3 cm×4 cm was prepared, followed by applying 0.4 mL of 1% DNCB/acetone solution to the inside of the region, to carry out sensitization. Two weeks later, 1 mL of 1% DNCB/acetone solution was applied to the inside of the region to cause induction, and 4 days thereafter, reinduction was carried out. Two days after the reinduction, the skin was removed from the test region, and 5 predetermined positions were punched out using a punch having a diameter of 12 mm, followed by measuring the skin thickness using a dial thickness gauge. Further, to investigate the influence of side effects, the thymus was removed to measure its weight. Application of the test drug was carried out 4 hours after the first dermatitis induction such that 0.1 mL of the ointment is uniformly applied over the test region. Thereafter, the test drug was applied once per day, a total of 6 times until the next day of the reinduction (the day before removal of the skin). The skin thickness and the weight of the thymus are shown in Table 3 as the suppression rate and the atrophy rate (%) relative to those of the control group.

Setting [5] is: drug concentration 0.01% ointment.
[6] abbreviates: drug concentration 0.10% ointment.

Turning to `CC(=O)OCC1OC(OCC(=O)C23OC(C4CCCCC4)OC2CC2C4CCC5=CC(=O)C=CC5(C)C4C(O)CC23C)C(OC(C)=O)C(OC(C)=O)C1OC(C)=O` (centres unmarked) [Compound 3], the “Rate of exudates suppression (pharmacological effects)” value in data set [1] (dose 0.001 mg/rat into pouch) was 7.9%; in data set [1] (dose 0.01 mg/rat into pouch), 41.6%; in data set [1] (dose 0.1 mg/rat into pouch), 92.7%; in data set [1] (dose 1 mg/rat into pouch) it was 96.3%. Also, the “Rate of thymus atrophy (systemic side effects)” value in data set [1] (dose 0.001 mg/rat into pouch) stood at 0.0%; in data set [1] (dose 0.01 mg/rat into pouch), 0.0%; in data set [1] (dose 0.1 mg/rat into pouch) it was 0.0%; in data set [1] (dose 1 mg/rat into pouch), 2.4%. Besides, the entries for the “Drug concentration of active metabolite (Compound C), 48 hours after test drug were applied once” value in data set [2] (DNCB-induced dermatitis skin) and in data set [2] (non-inflamed skin (normal skin)) were 1272 ± 276 (ng/g) and 119 ± 48 (ng/g), respectively. Moreover, the “Edema suppression rate of 6 hours after administration of inflammatory agent (%)” value is recorded as 50.3% in data set [3] (ointment concentration 0.001%), 46.1% in data set [3] (ointment concentration 0.01%) and 51.7% in data set [3] (ointment concentration 0.1%). Besides, the “Edema suppression rate of 24 hours after administration of inflammatory agent (%)” value in data set [3] (ointment concentration 0.001%) came to 48.1%; in data set [3] (ointment concentration 0.01%) it was 58.0%; in data set [3] (ointment concentration 0.1%) it was 56.0%. In addition, the “Rate of Skin thickness suppression (pharmacological effects) (%)” value is 46.1% in data set [4] (setting [5]) and 60.5% in data set [4] (setting [6]). For the same molecule, the “Rate of thymus atrophy (systemic side effects) (%)” value in data set [4] (setting [5]) and in data set [4] (setting [6]) was 0.0% each time.
